In the supplement of paper PMC11208160:

Assay: recombinant UMI read abundance after kanamycin selection (control-corrected) (log10(CPM+1)); higher = more efficient recombination; extreme values may be limits of the assay; sequences stand for … in AGTGCAGAGAAAATCGGCCAGTTTTCTCTGCCTGCAGTCCGCATGCCGTGGGACCCCTTGGGTTCTAACCTGTTGCCTAGATTTATGCAGCGGACTGCCTTTCTCCCAAAGTGATAAACCGG…AGGTTGGTTTCACT; site = the 11-nt donor
Method in brief: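 Two replicates each of selected and unselected plating were used in this pooled Escherichia coli screen of donor and donor-binding-loop pairs for the IS621 bridge recombinase. Selection was with IPTG (0.07 mM) and kanamycin. Counts of recombinant UMIs, amplified across the donor–target junction, were converted to CPM, averaged, scaled by control-derived factors and reported as log10(CPM+1).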
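Further: IS621 bridge recombinase in Escherichia coli cells against a fixed T5 target plasmid.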

Question: Which “recombinant UMI read abundance (log10)” value does the source give for “TGAACACCATGGACCGGTTTTCCCGGTAATCCGTATTTGAC (site TGGACACCTGT)” here?
Answer: Its value is 0.

Question: Which “recombinant UMI read abundance (log10)” value does the source give for “TGAACACCATGGACCGGTTTTCCCGGTAATCCGTATTTGAC (site TGTACACCTGT)” here?
Answer: The value was 0.

Question: With “TGAAGAGCATGGACCGGTTTTCCCGGTAATCCGTATTTGCA (site TGAAGAGCTTG)” as the sequence, how does the “recombinant UMI read abundance (log10)” value read?
Answer: Its value is 2.54.

Question: Which “recombinant UMI read abundance (log10)” value does the source give for “TGAAGCGCATGGACCGGTTTTCCCGGTAATCCGTATTTGCT (site TGAAGCGCTAG)” here?
Answer: Its value is 2.01.

Question: For “TGAATACCATGGACCGGTTTTCCCGGTAATCCGTATTTGTG (site TGAATACCTCA)”, which “recombinant UMI read abundance (log10)” value is on record?
Answer: Its value is 0.0076.

Question: For “TGACATTCATGGACCGGTTTTCCCGGTAATCCGTATTTGCT (site TGACATTCTAG)”, which “recombinant UMI read abundance (log10)” value is on record?
Answer: Its value is 1.97.

Question: Which “recombinant UMI read abundance (log10)” value does the source give for “TGACCTCCATGGACCGGTTTTCCCGGTAATCCGTATTTGAA (site TGACCTCCTTT)” here?
Answer: Its value is 0.019.

Question: With “TGACTATCATGGACCGGTTTTCCCGGTAATCCGTATTTGTA (site TGACTATCTTA)” as the sequence, how does the “recombinant UMI read abundance (log10)” value read?
Answer: The value was 2.58.

Question: For “TGACTCACATGGACCGGTTTTCCCGGTAATCCGTATTTGAC (site TGACTCACTGT)”, which “recombinant UMI read abundance (log10)” value is on record?
Answer: Its value is 2.68.

Question: With “TGAGAGGCATGGACCGGTTTTCCCGGTAATCCGTATTTGTA (site TGAGAGGCTTA)” as the sequence, how does the “recombinant UMI read abundance (log10)” value read?
Answer: The value was 2.3.

Question: Which “recombinant UMI read abundance (log10)” value does the source give for “TGAGATACATGGACCGGTTTTCCCGGTAATCCGTATTTGAG (site TGAGATACTCT)” here?
Answer: Its value is 2.26.

Question: For “TGAGGACCATGGACCGGTTTTCCCGGTAATCCGTATTTGCA (site TGAGGACCTTG)”, which “recombinant UMI read abundance (log10)” value is on record?
Answer: Its value is 0.

Question: Which “recombinant UMI read abundance (log10)” value does the source give for “TGAGTTTCATGGACCGGTTTTCCCGGTAATCCGTATTTGAG (site TGAGTTTCTCT)” here?
Answer: The value was 1.89.

Question: Which “recombinant UMI read abundance (log10)” value does the source give for “TGATAGACATGGACCGGTTTTCCCGGTAATCCGTATTTGGA (site TGATAGACTTC)” here?
Answer: The value was 0.865.

Question: Which “recombinant UMI read abundance (log10)” value does the source give for “TGATCAACATGGACCGGTTTTCCCGGTAATCCGTATTTGCT (site CGATCATCTAG)” here?
Answer: The value was 0.

Question: With “TGATCAACATGGACCGGTTTTCCCGGTAATCCGTATTTGCT (site TGATCAACTAG)” as the sequence, how does the “recombinant UMI read abundance (log10)” value read?
Answer: The value was 0.879.

Question: For “TGATCATCATGGACCGGTTTTCCCGGTAATCCGTATTTGCT (site AGATCATCTAG)”, which “recombinant UMI read abundance (log10)” value is on record?
Answer: The value was 1.56.

Question: Which “recombinant UMI read abundance (log10)” value does the source give for “TGATCATCATGGACCGGTTTTCCCGGTAATCCGTATTTGCT (site CGATCATCTAG)” here?
Answer: The value was 1.63.

Question: Which “recombinant UMI read abundance (log10)” value does the source give for “TGATCATCATGGACCGGTTTTCCCGGTAATCCGTATTTGCT (site GGATCATCTAG)” here?
Answer: Its value is 1.02.

Question: With “TGATCATCATGGACCGGTTTTCCCGGTAATCCGTATTTGCT (site TGATCATCTAG)” as the sequence, how does the “recombinant UMI read abundance (log10)” value read?
Answer: Its value is 0.945.

Question: With “TGATCCCCATGGACCGGTTTTCCCGGTAATCCGTATTTGTA (site TGATCCCCTTA)” as the sequence, how does the “recombinant UMI read abundance (log10)” value read?
Answer: The value was 0.674.

Question: Which “recombinant UMI read abundance (log10)” value does the source give for “TGATCCCCATGGACCGGTTTTCCCGGTAATCCGTATTTGTA (site TGCTCCCCTTA)” here?
Answer: Its value is 0.195.

Question: For “TGATCCCCATGGACCGGTTTTCCCGGTAATCCGTATTTGTA (site TGGTCCCCTTA)”, which “recombinant UMI read abundance (log10)” value is on record?
Answer: Its value is 0.00213.

Question: With “TGATCCCCATGGACCGGTTTTCCCGGTAATCCGTATTTGTA (site TGTTCCCCTTA)” as the sequence, how does the “recombinant UMI read abundance (log10)” value read?
Answer: The value was 0.28.

Question: With “TGATCCGCATGGACCGGTTTTCCCGGTAATCCGTATTTGCC (site TGATCCGCTGG)” as the sequence, how does the “recombinant UMI read abundance (log10)” value read?
Answer: The value was 1.55.

Question: For “TGCAAACCATGGACCGGTTTTCCCGGTAATCCGTATTTGGG (site TGCAAACCTCC)”, which “recombinant UMI read abundance (log10)” value is on record?
Answer: Its value is 0.00989.

Question: With “TGCAATCCATGGACCGGTTTTCCCGGTAATCCGTATTTGAA (site AGCAATCCTTT)” as the sequence, how does the “recombinant UMI read abundance (log10)” value read?
Answer: The value was 0.00584.

Question: Which “recombinant UMI read abundance (log10)” value does the source give for “TGCAATCCATGGACCGGTTTTCCCGGTAATCCGTATTTGAA (site CGCAATCCTTT)” here?
Answer: Its value is 0.257.

Question: Which “recombinant UMI read abundance (log10)” value does the source give for “TGCAATCCATGGACCGGTTTTCCCGGTAATCCGTATTTGAA (site GGCAATCCTTT)” here?
Answer: The value was 0.0354.

Question: For “TGCAATCCATGGACCGGTTTTCCCGGTAATCCGTATTTGAA (site TGCAATCCTTT)”, which “recombinant UMI read abundance (log10)” value is on record?
Answer: The value was 1.16.

Question: Which “recombinant UMI read abundance (log10)” value does the source give for “TGCACATCATGGACCGGTTTTCCCGGTAATCCGTATTTGCC (site TGCACATCTGG)” here?
Answer: Its value is 0.35.

Question: With “TGCACCGCATGGACCGGTTTTCCCGGTAATCCGTATTTGCG (site TACACCGCTCG)” as the sequence, how does the “recombinant UMI read abundance (log10)” value read?
Answer: The value was 0.0133.
